Test results as given in patent US20080287429A1 (Z & Z Medical Holdings, Inc., priority 2007, published 2008).
Where two headings read alike, the source gives them in different places.

How the values were obtained:
[1] = tested on: atherosclerotic plaque in pig artery; experiment: Solubilization of atherosclerotic plaque material in ex vivo samples of pig artery; settings: 50 mg/mL DCA bath, after 5 hours
Description: Early in the treatment, on removal of the sample from the bath a clear, viscous, column of fluid extended from the sample. This column of fluid continued to be apparent when samples were evaluated up to about 4 or 5 hours, after which the fluid column was no longer noted. Without wishing to be held to any one theory of operation, it was concluded that the clear fluid comprised components of the plaque. […] The sample was continuously exposed for a period of 8 days.

[2] = wild type mice, same amount of dietary HDCA; cited from earlier work
[3] = fed to C57BL/6 LDL r-KO knockout mice, relative to mice not provided HDCA; cited from earlier work
[4] = tested on: sandwich culture rat hepatocyte; settings: cited from earlier work
[5] = tested on: sandwich culture human hepatocytes; settings: cited from earlier work
[6] = tested on: sandwich culture rat hepatocytes; settings: cited from earlier work
[7] = tested on: hepatocellular uptake of bile acids; settings: cited from earlier work
[8] = in vivo; cited from earlier work
[9] = 40 mg/day rosuvastatin, cited from earlier work
[10] = tested on: bile acid uptake by hepatocyte receptors; settings: 1 mmol/kg, cited from earlier work

SMILES: C[C@H](CCC(=O)O)[C@H]1CC[C@H]2[C@@H]3CC[C@@H]4C[C@H](O)CC[C@]4(C)[C@H]3C[C@H](O)[C@]12C [DCA, deoxycholic acid]
- plaque volume decreased (macroscopic assessment) [1]: about 70%

SMILES: C[C@H](CCC(=O)O)[C@H]1CC[C@H]2[C@@H]3C[C@H](O)[C@@H]4C[C@H](O)CC[C@]4(C)[C@H]3CC[C@]12C [HDCA, hyodeoxycholic acid]
- plasma levels [2]: up to 50 μM
- rate of formation of atherosclerotic plaque [3]: reduced rate of formation

SMILES: COc1ccccc1Oc1c(NS(=O)(=O)c2ccc(C(C)(C)C)cc2)nc(-c2ncccn2)nc1OCCO [bosentan]
- hepatic uptake and excretion of bile acids from the bile pole of the hepatocyte ([4]; 100 μM): inhibit

SMILES: O=C1Nc2ccc(Cl)cc2[C@@](C#CC2CC2)(C(F)(F)F)O1 [efavirenz]
- bile acid transport ([5]; 32 μM): inhibit
- bile acid transport ([6]; 32 μM): inhibit

SMILES: CC(=O)N1CCN(c2ccc(OCC3COC(Cn4ccnc4)(c4ccc(Cl)cc4Cl)O3)cc2)CC1 (stereo not drawn) [ketoconazole]
- serum levels of cholic acid, taurocholic acid, and chenodeoxycholic acid ([7]; 25 mg/kg): increase
- serum levels of cholic, taurocholic, chenodeoxycholic, glycocholic, glycochenodeoxycholic, glycodeoxycholic, deoxycholic and taurochenodeoxycholic acid ([7]; 50 mg/kg): increase
- hepatocellular uptake of bile acids ([7]; dose related, relatively specific): strongly inhibiting
- side effect [8]: hepatotoxicity

SMILES: CC(C)c1nc(CN(C)C(=O)N[C@H](C(=O)N[C@@H](Cc2ccccc2)C[C@H](O)[C@H](Cc2ccccc2)NC(=O)OCc2cncs2)C(C)C)cs1 [ritonavir]
- bile acid transport ([5]; 28 μM): inhibit
- bile acid transport ([6]; 28 μM): inhibit

SMILES: CC(C)c1nc(N(C)S(C)(=O)=O)nc(-c2ccc(F)cc2)c1/C=C/[C@@H](O)C[C@@H](O)CC(=O)O [rosuvastatin]
- reduction with respect to normalized total atheroma volume ([9]; after 2 years, SD=11.1): 6.7%
- plaque volume reduced, most diseased segments of vessels examined ([9]; after 2 years, SD=13.7): 8.5%
- modulating LDL, HDL, and triglyceride levels [9]: particularly effective

SMILES: ClC=C(Cl)Cl [trichloroethylene]
- serum bile acids [10]: serum accumulation of bile acids
- bile acid uptake by hepatocyte receptors ([10]; rather than actual cell damage): reversible physiological interference

SMILES: Cc1c(C)c2c(c(C)c1O)CCC(C)(COc1ccc(CC3SC(=O)NC3=O)cc1)O2 (stereo not drawn) [troglitazone]
- hepatic uptake and excretion of bile acids from the bile pole of the hepatocyte ([4]; 10 μM): inhibit
